# Biological target: human D2LR E95^2.65A (Homo sapiens, UniProt P14416, E95A)
# Assay: ERK1/2 phosphorylation, E95^2.65A
# Type: cell-based
# Conditions: for Kb: read-out: KB Function (pERK1/2); for Schild slope: dopamine-mediated pERK1/2, competitive model
# Sequence of human D2LR E95^2.65A (P14416 whole entry E95A): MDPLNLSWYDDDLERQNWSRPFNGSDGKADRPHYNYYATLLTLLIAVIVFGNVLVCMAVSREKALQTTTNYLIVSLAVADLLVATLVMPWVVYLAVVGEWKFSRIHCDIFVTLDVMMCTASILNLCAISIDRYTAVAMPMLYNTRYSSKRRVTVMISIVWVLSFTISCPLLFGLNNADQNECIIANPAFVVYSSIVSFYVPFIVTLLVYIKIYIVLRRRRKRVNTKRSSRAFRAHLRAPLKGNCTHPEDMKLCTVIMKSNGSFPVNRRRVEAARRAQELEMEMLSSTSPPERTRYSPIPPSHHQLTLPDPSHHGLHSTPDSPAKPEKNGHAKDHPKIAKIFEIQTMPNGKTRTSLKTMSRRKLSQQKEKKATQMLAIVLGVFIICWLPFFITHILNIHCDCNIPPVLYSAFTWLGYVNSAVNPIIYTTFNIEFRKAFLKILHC
Compound,Logαβ (net cooperativity with dopamine),fold loss in functional affinity vs WT [fold],pKB Function (pERK1/2),αβ (net cooperativity with dopamine),fold loss in negative cooperativity with dopamine vs WT (pERK1/2) [fold],Kb [nM],Schild slope
O=C(N[C@H]1CC[C@H](CCN2CCc3ccccc3C2)CC1)c1cc2ccccc2[nH]1 [MIPS1278],−0.30 ± 0.20,709,4.21 ± 0.15,0.50,6,61700,
N#Cc1ccc2c(c1)CN(CCC1CCC(NC(=O)c3nc4ccccc4o3)CC1)CC2 (stereo not drawn) [MIPS1528],,,5.92 ± 0.07,,,1200,1.68 ± 0.10
O=C(N[C@H]1CC[C@H](CCN2CCc3ccc(Br)cc3C2)CC1)c1cc2ccccc2[nH]1 [MIPS1556],,,5.96 ± 0.12,,,,1.08 ± 0.09
N#Cc1ccc2c(c1)CN(CCC1CCC(NC(=O)c3ccc[nH]3)CC1)CC2 (stereo not drawn) [MIPS1576],−1.24 ± 0.10,24,7.02 ± 0.15,0.06,,95,
N#Cc1ccc2c(c1)CN(CCC1CCC(NC(=O)c3cc4cccnc4[nH]3)CC1)CC2 (stereo not drawn) [MIPS1588],−1.12 ± 0.16,27,5.90 ± 0.20,0.08,,1260,
